According to patent US6737383B1, “Herbicidal oxadiazolidines” (priority 1999, dated 2004):

Tests used:
smallflower flatsedge = test: Test B flood test smallflower flatsedge; assay type: in vivo, Cyperus difformis
Procedure, shortened: (§1)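 Plants were grown to the 2-leaf stage before treatment with test chemical, then held in a greenhouse for twelve to sixteen days. Injury was visually rated against untreated controls on a 0–10 scale, where 0 is no effect and 10 is complete control.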

sugar beet = test: Test B pre/postemergence sugar beet; assay type: in vivo, Beta vulgaris
Procedure, shortened: (§2)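 Herbicidal effect was estimated by eye on a ten-point control scale after plants spent twelve to sixteen days in a greenhouse following soil or foliar treatment. Foliar sprays targeted plants at one to four leaves; all doses were formulated in a non-phytotoxic solvent with surfactant.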

rice = test: Test B flood test rice; assay type: in vivo, Oryza sativa
Procedure, shortened: as §1

velvetleaf = test: Test B pre/postemergence velvetleaf; assay type: in vivo, Abutilon theophrasti
Procedure, shortened: as §2

morningglory = test: Test B pre/postemergence morningglory; assay type: in vivo, Ipomoea hederacea
Procedure, shortened: as §2

giant foxtail = test: Test B pre/postemergence giant foxtail; assay type: in vivo, Setaria faberii
Procedure, shortened: as §2

pigweed = test: Test B pre/postemergence pigweed; assay type: in vivo, Amaranthus retroflexus
Procedure, shortened: as §2

wild oat = test: Test B pre/postemergence wild oat; assay type: in vivo, Avena fatua
Procedure, shortened: as §2

soybean = test: Test B pre/postemergence soybean; assay type: in vivo, Glycine max
Procedure, shortened: as §2

surinam grass = test: Test B pre/postemergence surinam grass; assay type: in vivo, Brachiaria decumbens
Procedure, shortened: as §2

wheat = test: Test B pre/postemergence wheat; assay type: in vivo, Triticum aestivum
Procedure, shortened: as §2

blackgrass = test: Test B pre/postemergence blackgrass; assay type: in vivo, Alopecurus myosuroides
Procedure, shortened: as §2

cocklebur = test: Test B pre/postemergence cocklebur; assay type: in vivo, Xanthium strumarium
Procedure, shortened: as §2

rape = test: Test B pre/postemergence rape; assay type: in vivo, Brassica napus
Procedure, shortened: as §2

bedstraw = test: Test B pre/postemergence bedstraw; assay type: in vivo, Galium aparine
Procedure, shortened: as §2

corn = test: Test B pre/postemergence corn; assay type: in vivo, Zea mays
Procedure, shortened: as §2

[1] = Rate 62 g/ha, flood test species, Pre-emergence, visual evaluation after twelve to sixteen days
[2] = Rate 125 g/ha, under heading Pre-emergence, flood test species, visual evaluation after twelve to sixteen days
[3] = Rate 250 g/ha, Pre-emergence (flood test species), scale 0 to 10, 0 is no effect, 10 is complete control
[4] = Rate 500 g/ha, Pre-emergence section of Table B, 0 to 10 scale (0 no effect, 10 complete control)
[5] = Postemergence, Rate 62 g/ha, scale 0 to 10, 0 is no effect, 10 is complete control
[6] = Postemergence, Rate 125 g/ha, scale of 0 to 10 where 0 is no effect and 10 is complete control
[7] = Postemergence, Rate 250 g/ha, scale of 0 to 10, 0 is no effect, 10 is complete control
[8] = Preemergence, Rate 62 g/ha, scale 0 to 10 (0 no effect, 10 complete control)
[9] = Preemergence, Rate 125 g/ha, scale of 0 to 10 where 0 is no effect and 10 is complete control
[10] = Preemergence, Rate 250 g/ha, scale 0 to 10 (0 no effect, 10 complete control)
[11] = Preemergence, Rate 500 g/ha, scale of 0 to 10 where 0 is no effect and 10 is complete control
[12] = Postemergence, Rate 500 g/ha, scale of 0 to 10 where 0 is no effect and 10 is complete control

## CC(=O)NCn1c(=O)on(C(=O)N(c2ccccc2)C(C)C)c1=O [Compound 621]
Smallflower flatsedge; [1]
  Plant response rating, S. Flatsedge (0 to 10 scale, 0 is no effect, 10 is complete control): 0
Smallflower flatsedge; [2]
  S. Flatsedge plant response rating (0 to 10 scale, 0 is no effect, 10 is complete control): 0
Smallflower flatsedge; [3]
  S. Flatsedge plant response rating: 0
Smallflower flatsedge; [4]
  S. Flatsedge plant response rating: 0
Sugar beet; [5]
  Plant response rating, Sugarbeets: 0
Sugar beet; [6]
  Plant response rating, Sugarbeets: 0
Sugar beet; [7]
  Sugarbeets plant response rating: 0
Sugar beet; [8]
  Sugarbeets plant response rating: 0
Sugar beet; [9]
  Sugarbeets plant response rating: 0
Sugar beet; [10]
  Plant response rating, Sugarbeets: 0
Sugar beet; [11]
  Plant response rating, Sugarbeets: 0
rice; [1]
  Plant response rating, Rice (0 to 10 scale, 0 is no effect, 10 is complete control): 0
rice; [2]
  Rice plant response rating (0 to 10 scale, 0 is no effect, 10 is complete control): 0
rice; [3]
  Rice plant response rating: 0
rice; [4]
  Rice plant response rating: 0
velvetleaf; [5]
  Plant response rating, Velvetleaf: 0
velvetleaf; [6]
  Plant response rating, Velvetleaf: 0
velvetleaf; [7]
  Velvetleaf plant response rating: 0
velvetleaf; [8]
  Velvetleaf plant response rating: 0
velvetleaf; [9]
  Velvetleaf plant response rating: 0
velvetleaf; [10]
  Plant response rating, Velvetleaf: 0
velvetleaf; [11]
  Plant response rating, Velvetleaf: 0
morningglory; [5]
  Plant response rating, Morningglory: 1
morningglory; [6]
  Plant response rating, Morningglory: 2
morningglory; [7]
  Morningglory plant response rating: 2
morningglory; [12]
  Plant response rating, Morningglory: 8
morningglory; [8]
  Morningglory plant response rating: 0
morningglory; [9]
  Morningglory plant response rating: 0
morningglory; [10]
  Plant response rating, Morningglory: 0
morningglory; [11]
  Plant response rating, Morningglory: 0
Giant foxtail; [5]
  Plant response rating, Giant foxtail: 0
Giant foxtail; [6]
  Plant response rating, Giant foxtail: 0
Giant foxtail; [7]
  Giant foxtail plant response rating: 1
Giant foxtail; [12]
  Plant response rating, Giant foxtail: 7
Giant foxtail; [8]
  Giant foxtail plant response rating: 0
Giant foxtail; [9]
  Giant foxtail plant response rating: 7
Giant foxtail; [10]
  Plant response rating, Giant foxtail: 7
Giant foxtail; [11]
  Plant response rating, Giant foxtail: 10
pigweed; [5]
  Plant response rating, Redroot pigweed: 0
pigweed; [6]
  Plant response rating, Redroot pigweed: 0
pigweed; [7]
  Redroot pigweed plant response rating: 0
pigweed; [8]
  Redroot pigweed plant response rating: 0
pigweed; [9]
  Redroot pigweed plant response rating: 0
pigweed; [10]
  Plant response rating, Redroot pigweed: 0
pigweed; [11]
  Plant response rating, Redroot pigweed: 0
Wild oat; [5]
  Plant response rating, Wild oats: 0
Wild oat; [6]
  Plant response rating, Wild oats: 0
Wild oat; [7]
  Wild oats plant response rating: 0
Wild oat; [8]
  Wild oats plant response rating: 0
Wild oat; [9]
  Wild oats plant response rating: 0
Wild oat; [10]
  Plant response rating, Wild oats: 0
Wild oat; [11]
  Plant response rating, Wild oats: 0
soybean; [5]
  Plant response rating, Soybean: 1
soybean; [6]
  Plant response rating, Soybean: 5
soybean; [7]
  Soybean plant response rating: 5
soybean; [8]
  Soybean plant response rating: 0
soybean; [9]
  Soybean plant response rating: 0
soybean; [10]
  Plant response rating, Soybean: 0
soybean; [11]
  Plant response rating, Soybean: 3
Surinam grass; [5]
  Plant response rating, B. signalgrass: 0
Surinam grass; [6]
  Plant response rating, B. signalgrass: 0
Surinam grass; [7]
  B. signalgrass plant response rating: 0
Surinam grass; [12]
  Plant response rating, B. signalgrass: 0
Surinam grass; [8]
  B. signalgrass plant response rating: 0
Surinam grass; [9]
  B. signalgrass plant response rating: 0
Surinam grass; [10]
  Plant response rating, B. signalgrass: 0
Surinam grass; [11]
  B. signalgrass plant response rating: 0
wheat; [5]
  Plant response rating, Wheat: 0
wheat; [6]
  Plant response rating, Wheat: 0
wheat; [7]
  Wheat plant response rating: 0
wheat; [8]
  Wheat plant response rating: 0
wheat; [9]
  Wheat plant response rating: 0
wheat; [10]
  Plant response rating, Wheat: 0
wheat; [11]
  Plant response rating, Wheat: 0
blackgrass; [5]
  Plant response rating, Blackgrass: 0
blackgrass; [6]
  Plant response rating, Blackgrass: 0
blackgrass; [7]
  Blackgrass plant response rating: 0
blackgrass; [12]
  Plant response rating, Blackgrass: 0
blackgrass; [8]
  Blackgrass plant response rating: 0
blackgrass; [9]
  Blackgrass plant response rating: 0
blackgrass; [10]
  Plant response rating, Blackgrass: 0
blackgrass; [11]
  Blackgrass plant response rating: 0
cocklebur; [5]
  Plant response rating, Cocklebur: 0
cocklebur; [6]
  Plant response rating, Cocklebur: 0
cocklebur; [7]
  Cocklebur plant response rating: 0
cocklebur; [12]
  Plant response rating, Cocklebur: 0
cocklebur; [8]
  Cocklebur plant response rating: 0
cocklebur; [9]
  Cocklebur plant response rating: 0
cocklebur; [10]
  Plant response rating, Cocklebur: 0
cocklebur; [11]
  Plant response rating, Cocklebur: 0
rape; [5]
  Plant response rating, Rape: 0
rape; [6]
  Plant response rating, Rape: 0
rape; [7]
  Rape plant response rating: 0
rape; [12]
  Plant response rating, Rape: 0
rape; [8]
  Rape plant response rating: 0
rape; [9]
  Rape plant response rating: 0
rape; [10]
  Plant response rating, Rape: 0
rape; [11]
  Plant response rating, Rape: 0
bedstraw; [6]
  Plant response rating, Bedstraw: 0
bedstraw; [8]
  Bedstraw plant response rating: 0
bedstraw; [9]
  Bedstraw plant response rating: 0
bedstraw; [10]
  Plant response rating, Bedstraw: 0
bedstraw; [11]
  Bedstraw plant response rating: 0
corn; [5]
  Plant response rating, Corn: 0
corn; [6]
  Plant response rating, Corn: 0
corn; [7]
  Corn plant response rating: 0
corn; [12]
  Plant response rating, Corn: 0
corn; [8]
  Corn plant response rating: 0
corn; [9]
  Corn plant response rating: 0
corn; [10]
  Plant response rating, Corn: 0
corn; [11]
  Plant response rating, Corn: 0
